{"source": "patent US20160082066A1", "about": "“Method Use of Polymethoxyflavones (PMFs) in Body Composition Management” (priority 2014, published 2016)", "key": {"[1]": {"test_system": "3T3-L1 preadipocytes", "assay": "Oil Red O lipid accumulation in differentiating 3T3-L1 preadipocytes", "format": "cell-based", "conditions": "DMI 2 days, then insulin medium with substance 8 days; absorbance at 520 nm; FIG. 1-3", "description": "Ten days after the initiation of differentiation, lipid accumulation was measured by Oil Red O staining.\n3T3-L1 preadipocytes were incubated with DMI (DMEM with IBMX, DEX and insulin) for two days, and then replaced with DMEM medium containing insulin with or without ECG, EGCG and PMFs at indicated concentrations, respectively for 8 days. The 3T3-L1preadipocytes were stained with Oil Red O and photographed. Lipid content was extracted from Oil Red O stained cells by 2-propanol and quantified with spectrophotometric analysis at 520 nm.\n3T3-L1 preadipocytes were incubated with DMI (DMEM with IBMX, DEX and insulin) for two days, and then replaced with DMEM medium containing insulin with or without ECG, EGCG and PMFs at indicated concentrations, respectively for 8 days. The 3T3-L1preadipocytes were stained with Oil Red 0. Lipid content was extracted from Oil Red O stained cells by 2-propanol and quantified with spectrophotometric analysis at 520 nm.\n3T3-L1 preadipocytes were incubated with DMI (DMEM with IBMX, DEX and insulin) for two days, and then replaced with DMEM medium containing insulin with or without Lychee extracts and PMFs, or in combination at indicated concentrations, respectively for 8 days. […] Lipid content was extracted from Oil Red O stained cells by 2-propanol and quantified with spectrophotometric analysis at 520 nm."}, "[2]": {"biological_target": "T1, catechol-O-methyltransferase (Homo sapiens, UniProt P21964)", "T1 sequence (P21964 1-271)": "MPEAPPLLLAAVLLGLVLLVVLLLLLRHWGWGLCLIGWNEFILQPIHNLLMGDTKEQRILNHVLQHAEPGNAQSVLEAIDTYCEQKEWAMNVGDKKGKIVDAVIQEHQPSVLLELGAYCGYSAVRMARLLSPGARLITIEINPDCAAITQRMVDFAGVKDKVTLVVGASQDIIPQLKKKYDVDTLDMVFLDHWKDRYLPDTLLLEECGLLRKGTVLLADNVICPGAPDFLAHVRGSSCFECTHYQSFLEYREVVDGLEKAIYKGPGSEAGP", "conditions": "cited from earlier work"}, "[3]": {"conditions": "EGCG stand alone; young, healthy adults; cited from earlier work"}, "[4]": {"test_system": "3T3-L1 preadipocytes", "conditions": "tissue culture; cited from earlier work"}, "[5]": {"test_system": "high-fat diet-induced obesity in mice", "conditions": "cited from earlier work"}}, "data": [{"smiles": "O=C(O[C@@H]1Cc2c(O)cc(O)cc2O[C@@H]1c1ccc(O)c(O)c1)c1cc(O)c(O)c(O)c1", "note": "[ECG, epicatechin gallates]", "values": [{"measurement": "lipid accumulation in differentiated adipocytes (Oil Red O staining)", "setting": "[1]", "value": "decreased only slightly"}]}, {"smiles": "O=C(O[C@@H]1Cc2c(O)cc(O)cc2O[C@@H]1c1cc(O)c(O)c(O)c1)c1cc(O)c(O)c(O)c1", "note": "[EGCG, epigallocatechin gallates]", "values": [{"measurement": "lipid accumulation in differentiated adipocytes (Oil Red O staining)", "setting": "[1]", "value": "decreased only slightly"}, {"measurement": "catechol-O-methyltransferase activity", "setting": "[2]", "value": "inhibits"}, {"measurement": "resting metabolic rate (RMR) and thermal effects of feeding (TEF)", "setting": "[3]", "value": "would not increase"}]}, {"smiles": "COc1ccc(-c2cc(=O)c3c(OC)c(OC)c(OC)c(OC)c3o2)cc1OC", "note": "[nobiletin]", "values": [{"measurement": "differentiation of 3T3-L1 preadipocytes into adipocytes", "setting": "[4]", "value": "potently suppressing"}, {"measurement": "obesity and insulin resistance", "setting": "[5]", "value": "alleviating obesity and insulin resistance"}]}]}
